pIC50: −log10 of the molar value.
These compounds were tested on human PBMC HIV-1 CCR5-tropic replication, RT activity (assay: antiviral activity, R5 HIV-1 in human PBMC – cell-based, set 2, dose response (AID 504560)).

Row | Compound | pIC50
1 | Cc1c2c(=O)n(-c3nc4ccccc4s3)nc-2cc(O)n1Cc1cccs1 | 5.71
2 | Cc1c2c(=O)n(-c3nc4ccccc4s3)nc-2cc(O)n1CCc1cccs1 | 5.46
3 | Cc1c2c(=O)n(-c3nc4ccccc4s3)nc-2cc(O)n1Cc1ccncc1 | 5.72
4 | Cc1c2c(=O)n(-c3nc4ccccc4s3)nc-2cc(O)n1Cc1ccccc1 | 5.62
5 | Cc1c2c(=O)n(-c3nc4ccccc4s3)nc-2cc(O)n1Cc1cccnc1 | 6.04
6 | Cc1c2c(=O)n(-c3nc4ccccc4s3)nc-2cc(O)n1C1CC1 | 6.14
7 | Cc1c2c(=O)n(-c3nc4ccccc4s3)nc-2cc(O)n1Cc1ccccc1Cl | 5.20
8 | Cc1c2c(=O)n(-c3nc4ccccc4s3)nc-2cc(O)n1Cc1ccc(F)cc1 | 5.50
9 | COc1ccc(Cn2c(O)cc3nn(-c4nc5ccccc5s4)c(=O)c-3c2C)cc1 | 5.64
10 | Cc1c2c(=O)n(-c3nc4ccccc4s3)nc-2cc(O)n1CCc1ccc(O)cc1 | 5.82
11 | COc1ccc(CCn2c(O)cc3nn(-c4nc5ccccc5s4)c(=O)c-3c2C)cc1 | 5.21
12 | Cc1c2c(=O)n(-c3nc4ccccc4s3)nc-2cc(O)n1CCC(C)C | 5.27
13 | COc1ccccc1Cn1c(O)cc2nn(-c3nc4ccccc4s3)c(=O)c-2c1C | 5.27

Source: PubChem BioAssay AID504560 (Southern Research Specialized Biocontainment Screening …, 2011)
